25 compounds from US8754226B2, “Piperidinyl-substituted lactams as GPR119 modulators” (Array BioPharma Inc., priority 2010, dated 2014) can be followed below.

This assay relates to modified version of the GPR119 receptor (94% identity to human receptor). In words: cAMP production assay (LANCE cAMP kit, TR-FRET) in HEK-293 cells. It counts as cell-based. Particulars: for cAMP production in HEK-293 cells: HEK-293 cells stably expressing modified GPR119, test compounds 0.2 nM to 10 μM, one-hour incubation at ambient temperature; for Fold over baseline: increase in cAMP relative to basal levels, agonist activity if 1.5-fold or greater. The method in brief:
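Doxycycline-induced (1 μg/mL, overnight) HEK-293 cells expressing modified GPR119 were thawed, 2000 cells/well, and exposed to compounds (0.2 nM-10 μM final, 0.5% DMSO) for 1 h at ambient temperature in HBSS/HEPES/BSA. cAMP was measured by LANCE TR-FRET against a standard curve. Agonism was defined as ≥1.5-fold over basal.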
(In general: Cyclic AMP is a second messenger, typically raised through Gs and lowered through Gi signalling.)

Turning to `O=C1[C@@H](Nc2ccc(S(=O)(=O)C3CC3)nc2)CCN1C1CCN(c2ncc(Cl)cc2F)CC1` [Example 126, (S)-1-(1-(5-chloro-3-fluoropyridin-2-yl)piperidin-4-yl)-3-(6-(cyclopropylsulfonyl)pyri-din-3-ylamino)pyrrolidin-2-one], the “cAMP production in HEK-293 cells” value came out at 10.4 nmol and the Fold over baseline came out at 2.4.

Consider `CCS(=O)(=O)c1ccc(N[C@H]2CCN(C3CCN(c4ncc(Cl)cc4F)CC3)C2=O)cn1` [Example 127, (S)-1-(1-(5-chloro-3-fluoropyridin-2-yl)piperidin-4-yl)-3-(6-(ethylsulfonyl)pyridin-3-ylamino)pyrrolidin-2-one], for which the “cAMP production in HEK-293 cells” value was determined as 13.0 nmol and the Fold over baseline came to 2.7.

On to `CCS(=O)(=O)c1ccc(N[C@H]2CCN(C3CCN(c4cnc(Cl)cn4)CC3)C2=O)cn1` [Example 128, (S)-1-(1-(5-chloropyrazin-2-yl)piperidin-4-yl)-3-(6-(ethylsulfonyl)pyridin-3-ylamino)pyrrolidin-2-one], for which the “cAMP production in HEK-293 cells” value came out at 16.6 nmol and the Fold over baseline is given as 3.4.

Consider `CCS(=O)(=O)c1ccc(N[C@H]2CCN(C3CCN(c4ncc(Cl)cc4C#N)CC3)C2=O)cn1` [Example 129, (S)-5-chloro-2-(4-(3-(6-(ethylsulfonyl)pyridin-3-ylamino)-2-oxopyrrolidin-1-yl)piperidin-1-yl)nicotinonitrile], for which the “cAMP production in HEK-293 cells” value was determined as 28.4 nmol and the Fold over baseline is recorded as 2.1.

Turning to `CS(=O)(=O)c1ccc(N[C@H]2CCN(C3CCN(c4ncc(Cl)cc4F)CC3)C2=O)cn1` [Example 130, (S)-1-(1-(5-chloro-3-fluoropyridin-2-yl)piperidin-4-yl)-3-(6-(methylsulfonyl)pyridin-3-ylamino)pyrrolidin-2-one], the “cAMP production in HEK-293 cells” value was determined as 26.8 nmol and the Fold over baseline is recorded as 3.5.

Consider `CS(=O)(=O)c1ccc(N[C@H]2CCN(C3CCN(c4cnc(Cl)cn4)CC3)C2=O)cn1` [Example 131, (S)-1-(1-(5-chloropyrazin-2-yl)piperidin-4-yl)-3-(6-(methylsulfonyl)pyridin-3-ylamino)pyrrolidin-2-one], for which the “cAMP production in HEK-293 cells” value was 24.8 nmol and the Fold over baseline is given as 3.8.

Regarding `CS(=O)(=O)c1ccc(N[C@H]2CCN(C3CCN(c4nccnc4C#N)CC3)C2=O)c(F)c1` [Example 132, (S)-3-(4-(3-(2-fluoro-4-(methylsulfonyl)phenyl-amino)-2-oxopyrrolidin-1-yl)piperidin-1-yl)pyrazine-2-carbonitrile], the “cAMP production in HEK-293 cells” value was found to be 9.1 nmol and the Fold over baseline stood at 1.5.

`Cc1nc(S(C)(=O)=O)ccc1N[C@H]1CCN(C2CCN(c3cnc(Cl)cn3)CC2)C1=O` [Example 133, (S)-1-(1-(5-chloro-pyrazin-2-yl)piperidin-4-yl)-3-(2-methyl-6-(methylsulfonyl)pyridin-3-ylamino)pyrrolidin-2-one]: the “cAMP production in HEK-293 cells” value worked out at 27.9 nmol and the Fold over baseline is on record as 2.2.

In the case of `Cc1cnc(N2CCC(N3CC[C@H](Nc4ccc(S(C)(=O)=O)cc4F)C3=O)CC2)c(C#N)n1` [Example 134, (S)-3-(4-(3-(2-fluoro-4-(methylsulfonyl)phenyl-amino)-2-oxopyrrolidin-1-yl)piperidin-1-yl)-6-methylpyrazine-2-carbonitrile], the “cAMP production in HEK-293 cells” value came out at 35.7 nmol and the Fold over baseline is 2.7.

As to `CS(=O)(=O)c1ccc(O[C@H]2CCN(C3CCN(c4ncc(C(F)(F)F)cc4Cl)CC3)C2=O)c(F)c1` [Example 136, (S)-1-(1-(3-chloro-5-(trifluoromethyl)pyridin-2-yl)piperidin-4-yl)-3-(2-fluoro-4-(methyl-sulfonyl)phenoxy)pyrrol-idin-2-one], the “cAMP production in HEK-293 cells” value is 36.5 nmol and the Fold over baseline was found to be 3.0.

Take `O=C1[C@@H](Oc2ccc(-n3cnnn3)cc2)CCN1C1CCN(c2ncc(C(F)(F)F)cc2Cl)CC1` [Example 137, (S)-3-(4-(1H-tetrazol-1-yl)phenoxy)-1-(1-(3-chloro-5-(trifluoro-methyl)pyridin-2-yl)piperidin-4-yl) pyrrolidin-2-one]: the “cAMP production in HEK-293 cells” value amounted to 31.7 nmol and the Fold over baseline is 6.5.

Consider `CS(=O)(=O)c1ccc(O[C@H]2CCN(C3CCN(c4ncc(C(F)(F)F)cc4F)CC3)C2=O)c(F)c1` [Example 138, (S)-3-(2-fluoro-4-(methyl-sulfonyl)phenoxy)-1-(1-(3-fluoro-5-(trifluoro-methyl)pyridin-2-yl)piperidin-4-yl) pyrrolidin-2-one], for which the “cAMP production in HEK-293 cells” value stood at 38.6 nmol and the Fold over baseline stood at 6.7.

With `CS(=O)(=O)c1ccc(O[C@H]2CCN(C3CCN(c4ncc(Cl)cc4F)CC3)C2=O)c(F)c1` [Example 139, (S)-1-(1-(5-chloro-3-fluoropyridin-2-yl)piperidin-4-yl)-3-(2-fluoro-4-(methylsulfonyl)phenoxy) pyrrolidin-2-one], the “cAMP production in HEK-293 cells” value is 26.6 nmol and the Fold over baseline was 5.0.

`COC(=O)c1ccc(O[C@H]2CCN(C3CCN(c4ncc(C(F)(F)F)cc4Cl)CC3)C2=O)c(F)c1` [Example 140, (S)-methyl 4-(1-(1-(3-chloro-5-(trifluoro-methyl)pyridin-2-yl)piperidin-4-yl)-2-oxopyrrolidin-3-yloxy)-3-fluorobenzoate]: the “cAMP production in HEK-293 cells” value came to 12.2 nmol and the Fold over baseline was found to be 2.7.

On to `O=C1[C@@H](Oc2ccc(-n3cncn3)cc2)CCN1C1CCN(c2ncc(C(F)(F)F)cc2Cl)CC1` [Example 141, (S)-3-(4-(1H-1,2,4-triazol-1-yl)phenoxy)-1-(1-(3-chloro-5-(trifluoromethyl)pyridin-2-yl)piperidin-4-yl)pyrrolidin-2-one], for which the “cAMP production in HEK-293 cells” value was 15.5 nmol and the Fold over baseline came to 3.7.

As for `CS(=O)(=O)c1ccc(O[C@H]2CCN(C3CCN(c4ncc(C(F)(F)F)cc4F)CC3)C2=O)cn1` [Example 142, (S)-1-(1-(3-fluoro-5-(trifluoromethyl)pyridin-2-yl)piperidin-4-yl)-3-(6-(methylsulfonyl)pyridin-3-yloxy) pyrrolidin-2-one], the “cAMP production in HEK-293 cells” value was found to be 21.7 nmol and the Fold over baseline is recorded as 8.3.

`CS(=O)(=O)c1ccc(O[C@H]2CCN(C3CCN(c4ncc(C(F)(F)F)cc4Cl)CC3)C2=O)cn1` [Example 143, (S)-1-(1-(3-chloro-5-(trifluoromethyl)pyridin-2-yl)piperidin-4-yl)-3-(6-(methylsulfonyl)pyridin-3-yloxy) pyrrolidin-2-one]: the “cAMP production in HEK-293 cells” value stood at 13.3 nmol and the Fold over baseline turned out to be 4.3.

`CS(=O)(=O)c1ccc(O[C@H]2CCN(C3CCN(c4ncc(Cl)cc4F)CC3)C2=O)cn1` [Example 144, (S)-1-(1-(5-chloro-3-fluoropyridin-2-yl)piperidin-4-yl)-3-(6-(methylsulfonyl)pyridin-3-yloxy)pyrrolidin-2-one]: the “cAMP production in HEK-293 cells” value worked out at 19.6 nmol and the Fold over baseline came to 2.9.

For `CS(=O)(=O)c1ccc(N[C@H]2CCCN(C3CCN(c4ncc(C(F)(F)F)cc4Cl)CC3)C2=O)c(F)c1` [Example 145, (S)-1′-(3-chloro-5-(trifluoromethyl)pyridin-2-yl)-3-(2-fluoro-4-(methylsulfonyl)phenyl-amino)-1,4′-bipiperidin-2-one], the “cAMP production in HEK-293 cells” value was 28.3 nmol and the Fold over baseline amounted to 2.1.

On to `CS(=O)(=O)c1ccc(N[C@H]2CCCN(C3CCN(c4ncc(C(F)(F)F)cc4F)CC3)C2=O)c(F)c1` [Example 146, (S)-3-(2-fluoro-4-(methylsulfonyl)phenyl-amino)-1′-(3-fluoro-5-(trifluoromethyl)pyridin-2-yl)-1,4′-bipiperidin-2-one], for which the “cAMP production in HEK-293 cells” value was 34.6 nmol and the Fold over baseline is reported as 2.6.

Regarding `CS(=O)(=O)c1ccc(N[C@H]2CCN(C3CCN(c4ncc(Cl)nc4Cl)CC3)C2=O)c(F)c1` [Example 147, (S)-1-(1-(3,5-dichloropyrazin-2-yl)piperidin-4-yl)-3-(2-fluoro-4-(methylsulfonyl)phenylamino)pyrrolidin-2-one], the “cAMP production in HEK-293 cells” value came out at 46.4 nmol and the Fold over baseline came to 3.6.

As to `O=C(c1ccc(O[C@H]2CCN(C3CCN(c4ncc(Cl)cc4F)CC3)C2=O)cn1)N1CCCC1` [Example 148, (S)-1-(1-(5-chloro-3-fluoropyridin-2-yl)piperidin-4-yl)-3-(6-(pyrrolidine-1-carbonyl)pyridin-3-yloxy)pyrrolidin-2-one], the “cAMP production in HEK-293 cells” value is 14.4 nmol and the Fold over baseline is recorded as 2.4.

In the case of `CN(C)C(=O)c1ccc(O[C@H]2CCN(C3CCN(c4ncc(Cl)cc4F)CC3)C2=O)cn1` [Example 149, (S)-5-(1-(1-(5-chloro-3-fluoropyridin-2-yl)piperidin-4-yl)-2-oxopyrrolidin-3-yloxy)-N,N-dimethylpicolinamide], the “cAMP production in HEK-293 cells” value was determined as 6.8 nmol and the Fold over baseline was 1.5.

Consider `N#Cc1ccc(N[C@H]2CCN(C3CCN(c4ncc(C(F)(F)F)cc4Cl)CC3)C2=O)nn1` [Example 150, (S)-6-(1-(1-(3-chloro-5-(trifluoromethyl)pyridin-2-yl)piperidin-4-yl)-2-oxopyrrolidin-3-ylamino)pyridazine-3-carbonitrile], for which the “cAMP production in HEK-293 cells” value amounted to 17.1 nmol and the Fold over baseline amounted to 3.4.

`O=C(c1ccc(O[C@H]2CCN(C3CCN(c4ncc(C(F)(F)F)cc4Cl)CC3)C2=O)c(F)c1)N1CCCC1` [Example 151]: the “cAMP production in HEK-293 cells” value was determined as 35.8 nmol and the Fold over baseline was 4.7.
